These results are taken from patent US11635429B2 (priority 2019, dated 2023).

This assay has as its system anti-diacetoxyscirpenol monoclonal antibody secreted by hybridoma cell strain DAS5G11E7. Format: binding, mouse.

With 3-acetyldeoxynivalenol [3-acetyl-DON], the Cross reactivity is on record as less than 0.01%.

`CC1=CC2O[C@@H]3[C@H](O)C[C@](C)(C2(CO)C(O)C1=O)[C@]31CO1` (stereo partly shown) [DON, vomitoxin] returned a Cross reactivity of less than 0.01%.

Regarding `C[C@@H]1Cc2c(Cl)cc(C(=O)N[C@@H](Cc3ccccc3)C(=O)O)c(O)c2C(=O)O1` [OTA, ochratoxin], the Cross reactivity was less than 0.01%.

HT-2 toxin returned a Cross reactivity of less than 0.01%.
